The source of these data is patent US8685952B2, “Method for the treatment of diabetes” (KOWA Co., Ltd., priority 2006, dated 2014).

Experiment [1] concerns KKAy mice. Nature of the experiment: oral glucose tolerance test in KKAy mice after 21 days of oral administration. The settings on record: male KKAy mice; oral once a day for 21 days; pitavastatin 10 mg/kg, pravastatin 50 mg/kg, enalapril maleate 1 mg/kg; glucose 2 g/kg oral after 18 h fasting; compared with control group (combination also vs single administration groups, P<0.05). It counts as in vivo. How it is done: Male KKAy mice (age: 10 weeks, Nippon Cler Co., Ltd.) were provided. Throughout the duration of the experiment, the mice were housed in a cage with a controlled light/dark cycle (duration of light period with a room light: 7:00 a.m. to 7:00 p.m.) at a temperature of 23±3° C. and a humidity of 55±15% and were allowed to freely take a solid chow (CE-2; Nippon Cler Co., Ltd.) and tap water. Pitavastatin and/or enalapril maleate were suspended in a 0.5-mass % aqueous solution of carboxymethyl cellulose (Iwai Kagaku Co., Ltd.) so that the pitavastatin content and the enalapril maleate content were adjusted to 1 mg/mL and 0.1 mg/mL, respectively. Since pitavastatin has a water content of 9.43%, pitavastatin was weighed in an amount of 1.1 times by mass the target dose for compensation. The suspension was refrigerated (4° C.) in a light-tight bottle. The suspensions were prepared every 7 days. Twenty four KKAy mice were randomly divided into the following four groups (six mice per group): a control group, a pitavastatin alone (10 mg/kg) group, an enalapril maleate alone (1 mg/kg) group, and a pitavastatin (10 mg/kg) and enalapril maleate (1 mg/kg) combined use group. Each of pitavastatin and enalapril maleate was orally administered once a day at a dose of 10 mL/kg for 21 days, and a 0.5 mass % aqueous sodium carboxymethyl cellulose solution (10 mL/kg) was orally administered to the control group. […] Immediately after collection, blood glucose level was determined by means of a […] reader (GR-101, product of Terumo Co., Ltd.). After determination of the initial blood glucose level, an aqueous glucose solution was orally administered to each mouse (2 g/10 mL/kg), and blood glucose level was determined in a similar manner at 15, 30, 60, and 120 minutes after administration of glucose. In each group, AUC of blood glucose level was calculated. The differences between the control group and the drug-administered groups were analyzed on the basis of Dunnett's multiple comparison test, preceded by Bartlett's analysis of variance. […]

Experiment [2] deals with KKAy mice. The settings on record: type II diabetes model, reported in the literature; cited from earlier work.

Each structure is given as a SMILES string. Where a name gives a salt, the structure may show the parent alone.

In the case of `CC[C@H](C)C(=O)O[C@H]1C[C@H](O)C=C2C=C[C@H](C)[C@H](CC[C@@H](O)C[C@@H](O)CC(=O)O)[C@H]21` [pravastatin, pravastatin sodium], in the experiment on KKAy mice [1], the “AUC of blood glucose level (to glucose tolerance hour 2)” value (“AUC of blood glucose level” for short) is “tended to be reduced”. For the same compound, the “effect on impaired glucose tolerance / insulin resistance” value with KKAy mice [2] is listed as “effect of reversing impaired glucose tolerance”.
For `CCOC(=O)[C@H](CCc1ccccc1)N[C@H]1CS[C@H](c2cccs2)CN(CC(=O)O)C1=O` [temocapril], the “effect on impaired glucose tolerance / insulin resistance” value in the experiment on KKAy mice [2] is “reduction of insulin resistance”.
For `O=C([O-])C[C@H](O)C[C@H](O)/C=C/c1c(C2CC2)nc2ccccc2c1-c1ccc(F)cc1.O=C([O-])C[C@H](O)C[C@H](O)/C=C/c1c(C2CC2)nc2ccccc2c1-c1ccc(F)cc1.[Ca+2]` [pitavastatin, pitavastatin calcium], the “AUC of blood glucose level” value with KKAy mice [1] is “tended to be reduced”. The “effect on impaired glucose tolerance / insulin resistance” value in the experiment on KKAy mice [2] is listed as “effect of improving impaired glucose tolerance”.
Turning to `CCOC(=O)[C@H](CCc1ccccc1)N[C@@H](C)C(=O)N1CCC[C@H]1C(=O)O` [enalapril maleate], the “AUC of blood glucose level” value in the experiment on KKAy mice [1] was “tended to be reduced”.
